Target: T1, VibB (UniProt P0C6D3+P39135)
T1 construct: made in house; host or cells: E. coli BL21 (DE3), crude lysate
Assay type: biochemical, Vibrio cholera
Conditions: cell lysate of E. coli BL21 producing VibB, recombinant Sfp, SDS-PAGE, UV irradiation
From the text: To investigate PPTase transfer of non-thioester CoA derivatives, Sfp was used for post-translational modification of known, heterologously expressed CP domains (FIG. 11). As a first experiment, VibB was used. VibB is a small protein from the Vibrio cholera vibriobactin biosynthetic machinery that consists of a modular NRP synthase system. VibB contains only one carrier protein domain and as such is a perfect model system due to its small size and facile expression in E. coli. Cell lysate was collected from induced E. coli BL21 cells producing VibB from a pET24 expression vector. An aliquot of this lysate was incubated with CoA-BODIPY derivative and recombinant Sfp and analyzed by SDS-PAGE. […] Coomassie staining of the gel confirmed the band to be fluorescently-tagged VibB (32.6 kD) (FIG. 11C). […]
One Liter of E. Coli BL21 (DE3) cells induced to express recombinant VibB, FrenACP, OtcACP, and TcmACP, each in pET22b vectors (Novagen, Madison, Wis.), were pelleted, resuspended, and lysed by sonication in 30 mL 0.1 M Tris-Cl pH 8.0 with 1% glycerol in the presence of 500 μL of a 10 mM protease inhibitor cocktail containing bestatin, pepstatin A, E-64, and phosphoramidon (Sigma-Aldrich) and sonicated by pulsing for 5 minutes on ice. […] Protein concentration was determined using the Bradford method with bovine serum albumin (Sigma-Aldrich) as a standard.

T1 sequence (P39135 whole entry): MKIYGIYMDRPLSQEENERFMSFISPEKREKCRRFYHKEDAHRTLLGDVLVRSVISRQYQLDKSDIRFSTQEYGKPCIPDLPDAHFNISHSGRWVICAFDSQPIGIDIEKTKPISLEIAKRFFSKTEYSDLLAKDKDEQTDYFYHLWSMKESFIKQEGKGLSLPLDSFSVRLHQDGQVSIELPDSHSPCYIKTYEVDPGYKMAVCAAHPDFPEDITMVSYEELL
T1 sequence (P0C6D3 whole entry): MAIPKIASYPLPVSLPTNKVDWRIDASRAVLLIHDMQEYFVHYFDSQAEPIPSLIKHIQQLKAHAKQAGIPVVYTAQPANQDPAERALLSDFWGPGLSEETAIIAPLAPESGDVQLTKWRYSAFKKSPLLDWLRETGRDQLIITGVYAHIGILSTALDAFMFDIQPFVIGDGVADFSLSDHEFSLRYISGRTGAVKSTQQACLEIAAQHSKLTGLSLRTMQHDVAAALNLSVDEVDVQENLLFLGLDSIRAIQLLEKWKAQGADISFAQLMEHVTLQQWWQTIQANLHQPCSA

**Q.** `O=C(O)c1cc(N2C(=O)C=CC2=O)ccc1-c1c2cc(F)c(=O)cc-2oc2cc(O)c(F)cc12` [1b, Oregon Green® 488 maleimide] was tested. Which “fluorescent labeling of VibB” value did it give?
**A.** Comparable labeling
